# From patent US9802899B2, “Heterocyclic compounds as pesticides” (BAYER CROPSCIENCE AG, priority 2012, dated 2017)
# Assay: Determination of the log P values by HPLC (formic acid method)
# Assay type: physicochemical
# Settings: reversed-phase HPLC column (C 18), reversed-phase column (C 18), acidic range (pH 3.4), 55° C.
# Method: 1) Description of Method for Determination of the Log P Values (Formic Acid Method)
# Eluents for determination in the acidic range (pH 3.4):
# Eluent A: acetonitrile+1 ml of formic acid/liter. Eluent B: water+0.9 ml of formic acid/liter.
# The lambda max values were determined in the maxima of the chromatographic signals using the UV spectra from 200 nm to 400 nm.
row,Compound,chromatographic logP
1,"Cc1cc(C(F)(F)F)c(C#N)c(-n2ccc(NC(=O)c3ccccc3C(F)(F)F)n2)n1 [Compound I-1-571, N-{1-[3-Cyano-6-methyl-4-(trifluoromethyl)pyridin-2-yl]-1H-pyrazol-3-yl}-2-(trifluoromethyl)benzamide]",3.49
2,Nc1ccn(-c2nccnc2F)n1 [1-(3-Fluoropyrazin-2-yl)-1H-pyrazole-3-amine],0.49
3,Nc1ccn(-c2cncc(F)n2)n1 [1-(6-Fluoropyrazin-2-yl)-1H-pyrazole-3-amine],0.9
4,"O=C(Nc1ccn(-c2ncnc(F)c2F)n1)c1ccccc1C(F)(F)F [Compound I-1-169, N-[1-(5,6-Difluoropyrimidin-4-yl)-1H-pyrazol-3-yl]-2-(trifluoromethyl)benzamide]",2.62
5,"Nc1ccn(-c2cc(F)ccc2F)n1 [1-(2,5-Difluorophenyl)-1H-pyrazole-3-amine]",1.58

# Same assay, conditions: reversed-phase column (C 18), acidic range (pH 3.4), 55° C.
row,Compound,log P
1,Cc1cccc(C)c1C(=O)Nc1ccn(-c2ncc(F)cc2F)n1 [Compound I-1-480],2.51
2,O=C(Nc1ccn(-c2ncccc2C(F)(F)F)n1)c1c(F)cccc1F [Compound I-1-423],2.46
3,CCc1cc(NC(=O)c2c(F)cccc2F)nn1-c1ccc(F)cc1F [Compound I-1-207],3.84
4,O=C(Nc1ccn(-c2ncc(F)cc2F)n1)c1nccnc1C(F)(F)F [Compound I-1-501],2.20
5,N#Cc1cncnc1-n1ccc(NC(=O)c2c(F)cccc2F)n1 [Compound I-1-595],2.03
6,O=C(Nc1ccn(-c2ncccc2Br)n1)c1ccccc1Cl [Compound I-1-553],2.23
7,Cc1cc(C)c(C#N)c(-n2ccc(NC(=O)c3ccccc3C(F)(F)F)n2)n1 [Compound I-1-567],3.15
8,CCc1ccccc1C(=O)Nc1ccn(-c2c(F)cccc2F)n1 [Compound I-1-78],2.92
9,O=C(c1cccnc1C(F)(F)F)N(C(=O)c1cccnc1C(F)(F)F)c1ccn(-c2ncccc2F)n1 [Compound I-1-134],2.93
10,Cn1ncc(Cl)c1C(=O)Nc1ccn(-c2c(F)cccc2F)n1 [Compound I-1-311],2.46
11,Cn1cnnc1C(=O)Nc1ccn(-c2c(F)cccc2F)n1 [Compound I-1-328],1.51
12,O=C(Nc1ccn(-c2ncc(Cl)cc2F)n1)c1ccsc1I [Compound I-1-592],2.99
13,O=C(c1ccccc1Cl)N(C(=O)c1ccccc1Cl)c1nn(-c2ccccc2Br)nc1Cl [Compound I-2-30],4.87
14,O=C(c1ccccc1I)N(C(=O)c1ccccc1I)c1nn(-c2ccccc2Br)nc1Cl [Compound I-2-34],5.06
15,Cn1cc(Br)c(C(=O)Nc2ccn(-c3c(F)cccc3F)n2)n1 [Compound I-1-301],2.37
16,CCc1ccccc1C(=O)Nc1ccn(-c2ncc(F)cc2F)n1 [Compound I-1-488],2.69
17,O=C(Nc1cnn(-c2ncc(F)cc2F)n1)c1ccccc1Cl [Compound I-2-70],2.22
18,O=C(Nc1nn(-c2ccccc2Br)nc1Cl)c1ccccc1Cl [Compound I-2-29],3.09
19,O=C(Nc1ccn(-c2cc(F)c(F)cc2F)n1)c1ccccc1C(F)(F)F [Compound I-1-193],3.73
20,O=C(Nc1ccn(-c2ncc(C(F)(F)F)cc2Cl)n1)c1ccccc1C(F)(F)F [Compound I-1-560],3.41
21,O=C(Nc1ccn(-c2ncccc2Br)n1)c1cccnc1C(F)(F)F [Compound I-1-550],2.34
22,O=C(Nc1ccn(-c2cc(F)ccc2F)n1)c1ccsc1I [Compound I-1-219],3.25
23,Cc1noc(C(F)(F)F)c1C(=O)Nc1ccn(-c2c(F)cccc2F)n1 [Compound I-1-291],2.80
24,N#Cc1cc(F)c(-n2nc(NC(=O)c3c(F)cccc3F)c3c(F)cccc32)cc1F [Compound I-5-11],2.99
25,Cn1ncc(F)c1C(=O)Nc1ccn(-c2c(F)cccc2F)n1 [Compound I-1-321],2.27

row,Compound,log P
1,O=C(Nc1ccn(-c2nc(F)c(F)cc2F)n1)c1c(F)cccc1F [Compound I-1-166],2.51
2,O=C(Nc1ccn(-c2c(F)cccc2F)n1)c1c(F)cccc1Cl [Compound I-1-85],2.60
3,O=C(Nc1ccn(-c2ccccc2Cl)n1)c1sccc1C(F)F [Compound I-1-374],3.15
4,O=C(Nc1cnn(-c2c(F)cccc2F)n1)c1ccccc1Cl [Compound I-2-38],2.66
5,O=C(Nc1ccn(-c2ccccc2Br)n1)c1ccccc1C(F)(F)F [Compound I-1-50],3.07
6,O=C(Nc1ccn(-c2ccccc2Cl)n1)c1c(Cl)cccc1Cl [Compound I-1-351],3.00
7,Cn1ncc(Cl)c1C(=O)Nc1ccn(-c2ncc(F)cc2F)n1 [Compound I-1-529],2.23
8,Cn1cc(C(=O)Nc2cnn(-c3c(F)cccc3F)n2)c(C(F)F)n1 [Compound I-2-78],2.22
9,O=C(Nc1ccn(-c2ncc(Cl)cc2Cl)n1)c1cc(Cl)ccc1C(F)(F)F [Compound I-1-437],2.93
10,O=C(Nc1ccn(-c2ncc(Cl)cc2F)n1)c1ccccc1Br [Compound I-1-589],2.78
11,O=C(Nc1ccn(-c2ncc(F)cc2F)n1)c1ccncc1C(F)(F)F [Compound I-1-153],1.96
12,COc1cccc(Cl)c1C(=O)Nc1ccn(-c2c(F)cccc2F)n1 [Compound I-1-271],2.47
13,O=C(Nc1ccn(-c2ncccc2Cl)n1)c1c(F)cccc1F [Compound I-1-564],2.12
14,CCOc1cccc(Cl)c1-n1ccc(NC(=O)c2ccccc2C(F)(F)F)n1 [Compound I-1-340],3.15
15,O=C(Nc1cnn(-c2ncc(F)cc2F)n1)c1sccc1C(F)(F)F [Compound I-2-85],2.50
16,Cc1cc(NC(=O)c2cccnc2C(F)(F)F)nn1-c1ccc(F)cc1F [Compound I-1-203],3.19
17,O=C(Nc1ccn(-c2ncccc2C(F)(F)F)n1)c1cccnc1C(F)(F)F [Compound I-1-426],2.69
18,Cc1ccccc1C(=O)N(C(=O)c1cccnc1C)C1=NN(c2c(F)cccc2F)CC1 [Compound I-4-6],4.45
19,O=C(Nc1ccn(-c2ccccc2Br)n1)c1cccnc1Cl [Compound I-1-57],2.37
20,O=C(Nc1ccn(-c2cnc(Cl)cn2)n1)c1ccccc1C(F)(F)F [Compound I-1-385],2.94
21,O=C(Nc1ccn(-c2ncc(C(F)(F)F)cc2Cl)n1)c1ccccc1I [Compound I-1-421],3.43
22,Cc1nn(-c2ccccc2Cl)nc1N(C(=O)c1ccccc1C(F)(F)F)C(=O)c1ccccc1C(F)(F)F [Compound I-2-22],4.54
23,Cn1nc(C(F)F)c(C(=O)Nc2ccn(-c3c(F)cccc3F)n2)c1F [Compound I-1-283],2.27
24,CC1=C(C(=O)Nc2ccn(-c3c(F)cccc3F)n2)OCCO1 [Compound I-1-615],2.42
25,Cc1nn(-c2ncccc2Cl)nc1NC(=O)c1ccccc1C(F)(F)F [Compound I-2-53],2.33

row,Compound,log P
1,O=C(Nc1ccn(-c2c(F)cccc2F)n1)c1cccnc1CC(F)(F)F [Compound I-1-246],2.35
2,O=C(Nc1ccn(-c2ccccc2[N+](=O)[O-])n1)c1ccccc1I [Compound I-1-419],2.61
3,Cn1cnnc1C(=O)Nc1ccn(-c2ncc(F)cc2F)n1 [Compound I-1-544],1.29
4,COc1ccccc1-n1ccc(NC(=O)c2cc(C)oc2C)n1 [Compound I-1-3],2.87
5,O=C(Nc1ccn(-c2ncc(F)cn2)n1)c1ccccc1Br [Compound I-1-603],1.94
6,O=C(Nc1ccn(-c2ncc(F)cc2F)n1)c1ncccc1Cl [Compound I-1-504],2.16
7,COc1ccccc1-n1ccc(NC(=O)c2ccccc2Cl)n1 [Compound I-1-410],2.70
8,N#CCN(C(=O)c1ccccc1C(F)(F)F)c1ccn(-c2ncc(F)cc2F)n1 [Compound I-1-472],2.80
9,O=C(Nc1ccn(-c2ncccc2Br)n1)c1ccccc1Br [Compound I-1-552],2.31
10,Cc1ccsc1C(=O)Nc1ccn(-c2cc(F)ccc2F)n1 [Compound I-1-71],3.24
11,O=C(Nc1ccn(-c2cc(F)cnc2F)n1)c1ccccc1C(F)(F)F [Compound I-1-224],2.72
12,"O=[N+]([O-])c1ccn(-c2c(F)cccc2F)c1 [Ex. 46-II, 1-(2,6-Difluorophenyl)-3-nitro-M-pyrrole]",2.58
13,O=C(Nc1nn(-c2ncccc2Cl)nc1Cl)c1ccccc1C(F)(F)F [Compound I-2-11],2.60
14,O=C(NC1=NN(c2ccccc2Cl)CC1)c1ccccc1Br [Compound I-4-8],2.37
15,O=C(Nc1ccn(-c2c(F)cccc2F)n1)c1cccc(F)c1C(F)(F)F [Compound I-1-287],2.76
16,Cn1nc(C(F)(F)F)c(C(=O)Nc2ccn(-c3ncc(F)cc3F)n2)c1F [Compound I-1-158],2.36
17,N#Cc1cn(-c2ccccc2Cl)nc1NC(=O)c1ccccc1Cl [Compound I-1-362],2.37
18,O=C(Nc1ccn(-c2ncc(Cl)cc2Cl)n1)c1cccc(F)c1C(F)(F)F [Compound I-1-434],2.61
19,CCc1ncccc1C(=O)Nc1ccn(-c2ncc(F)cc2F)n1 [Compound I-1-490],1.29
20,O=C(Nc1ccn(-c2cnc(Cl)cn2)n1)c1ccccc1I [Compound I-1-390],2.96
21,O=C(Nc1nn(-c2ccccc2Cl)cc1Br)c1ccccc1I [Compound I-1-366],3.12
22,O=C(Nc1ccn(-c2cc(F)ccc2F)n1)c1ncccc1Cl [Compound I-1-220],3.00
23,C#CCN(C(=O)c1ccccc1C(F)(F)F)c1ccn(-c2ncc(F)cc2F)n1 [Compound I-1-470],3.05
24,O=C(Nc1ccn(-c2ncc(F)cc2F)n1)c1snc(Cl)c1Cl [Compound I-1-159],3.06
